Experimental data published in publication PMC11412900 (Molecular Psychiatry, 2024).
Where two headings read alike, the source gives them in different places.

Key:
SERT [1] = target: T1, SERT (Homo sapiens, UniProt P31645); assay: Radioligand binding, [3H]imipramine displacement
T1 construct: YFP (yellow-fluorescent protein); expressed in transfected cells
Method: (§1) Binding assays were performed as described previously. Briefly, membrane preparations expressing h5-HT1AR, h5-HT2AR or hSERT (see Supplementary Material) were incubated with radiolabeled selective ligands 0.4 nM [^3H]8-OH-DPAT, 1 nM [^3H]ketanserin or 3 nM [^3H]imipramine, respectively. The drugs were diluted in the corresponding binding buffer and tested at increasing concentrations in duplicate. Binding reactions were performed in tubes containing the drug dilutions; 25 μl of the corresponding radioligand; and the membranes (10 μg and 5 μg/500 μL for 5-HT1AR and 5-HT2AR, respectively, and 15 μg/100 μL for hSERT), all diluted in binding buffer. […] Incubation was performed for 1 h at 27 °C for 5-HT1A/2AR and 22 °C for hSERT, according to the manufacturer’s protocol (Perkin Elmer, Inc., Waltham, MA, USA) and previous studies - saturation and kinetic experiments, respectively. The binding reactions were stopped by rapid filtration through GF/B glass microfiber filters pre-soaked with 0.5% polyethyleneimine and washing with ice-cold wash buffer. The filters were placed into vials and scintillation cocktail was added. The trapped radioactivity was quantified. Specific binding was defined as the difference between total binding (binding buffer alone) and non-specific binding. Experiments were conducted per duplicate for at least three independent experiments.
(§2) The generation and maintenance of HEK293 cells stably expressing the yellow-fluorescent protein (YFP)-tagged version of the human isoform of SERT (hSERT) (Perkin Elmer, Waltham, MA, USA) was carried out as described previously. For uptake inhibition and batch release assays, cells were seeded onto previously poly-D-lysine (PDL)-coated 96-well plates at a density of 0.036 million cells per well [5]. For superfusion release assays, cells were seeded onto a previously coated with PDL 6 channel µ-slide at a density of 0.08 million cells per channel. Prior to patching, cells were grown in DMEM containing 10% FBS, Zeocin (150 µg/mL) and Blasticidin (6 µg/mL) for positive selection of transporter-expressing clones. The cells were seeded at a low density on PDL-coated 35 mm plates 24-48 hr prior to patching. For membrane preparation, HEK293 cells expressing hSERT transporters were harvested from 80–90% confluent dishes as described elsewhere. Protein concentration was determined using the Bio-RadProtein Reagent (Bio Rad Laboratories, Hercules, CA, USA). Membrane preparations were stored at −80°C until use. Generation and maintenance of CHO-K1 cells expressing the human isoform of 5-HT2AR (h5-HT2AR) was carried out as described in the manufacturer’s protocol (Perkin Elmer, Waltham, MA, USA). Routine DAPI-Staining assays tested negative in mycoplasma contamination.

h5-HT2AR = target: T2, h5-HT2AR (Homo sapiens, UniProt P28223); type: binding; settings: 1 nM [3H]ketanserin, N ≥ 3; read-out: 5-HT2AR Ki ± SD
T2 construct: purchased Perkin Elmer, Inc. (Waltham, MA, USA)
T2 sequence (P28223 whole entry): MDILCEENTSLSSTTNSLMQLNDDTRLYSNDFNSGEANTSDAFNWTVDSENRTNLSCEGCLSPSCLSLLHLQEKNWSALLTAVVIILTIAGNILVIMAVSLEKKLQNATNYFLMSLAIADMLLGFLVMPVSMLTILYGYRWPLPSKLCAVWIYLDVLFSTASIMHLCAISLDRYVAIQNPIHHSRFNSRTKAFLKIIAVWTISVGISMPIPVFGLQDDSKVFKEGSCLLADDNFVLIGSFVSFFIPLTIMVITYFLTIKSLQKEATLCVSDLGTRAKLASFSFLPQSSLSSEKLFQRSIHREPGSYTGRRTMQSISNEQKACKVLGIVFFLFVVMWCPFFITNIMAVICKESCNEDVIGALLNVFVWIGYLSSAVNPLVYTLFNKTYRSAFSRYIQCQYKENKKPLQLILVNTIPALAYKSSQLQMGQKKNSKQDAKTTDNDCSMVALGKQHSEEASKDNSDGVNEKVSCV
Method: as §1

SERT [2] = target: T1, SERT; assay: [3H]5-HT uptake inhibition in HEK293 cells expressing hSERT; type: cell-based
Method: See the Supplementary Material for cell culture procedures. The medium was removed from each well and replaced with 200 μL/well of Krebs-HEPES-Buffer (KHB). The cells were pre-incubated for 5 min with different concentrations of drug in KHB at 50 μL/well. […] The incubation solution was aspirated and the cells were washed with ice-cold KHB and lysed with 1% sodium dodecyl sulfate (SDS). The lysate was collected into vials and scintillation liquid was added. The radioactivity was quantified using a beta-scintillation counter (Perkin Elmer, Waltham, MA, USA). Non-specific uptake was determined in the presence of 30 μM paroxetine. Data were expressed as percentage of control uptake (absence of tryptamine).
as §2

[3] = system: head twitch response in mice; assay: Head twitch response (HTR); type: in vivo; settings: mice, i.p.; for HTR Emax (95% CI): 10-min period
Method: HTR studies were adapted from. Mice (N = 8–10 per group) were injected intraperitoneally (i.p.) with saline or the appropriate tryptamine dose (0.3, 1, 3, 10, or 30 mg/kg) and placed into the observation arena (25 × 25 × 40 cm). A camera mounted above the observation cage recorded the mice for the next 10 min after the injection. Another batch of animals (N = 8–10) received subcutaneous injections of either saline or the respective antagonist (WAY100635 1 mg/kg for 5-HT1AR or ketanserin 1 mg/kg for 5-HT2AR). After a 10-min interval, the animals were i.p. injected with the corresponding tryptamine (10 mg/kg) and placed in the observation arena. Animal behavior was recorded for the next 10 min after the last injection, as mentioned before. Video recordings were examined by two blind observers blinded to the treatments, who assessed the number of head twitches, defined as a rapid rotational jerk of the head which is not contiguous with any grooming behavior [39].
(§3) Data were expressed as means±standard deviation (SD). Competition, release and functional assays, and substrate-induced current curves were plotted and fitted by non-linear regression to obtain the IC50, EC50, and Emax values. For behavioral studies, data were fitted by non-linear regression and pED50 and Emax values (with the corresponding 95% CI) were estimated by means of a software (GraphPad Prism 10) that further extrapolates the data. The Cheng-Prusoff equation was used to calculate Ki (affinity): Ki = […]/(1 + [radioligand-concentration/Kd]). HTR curves were fitted using a Gaussian equation as described. Data from batch release assays were statistically analyzed with a mixed-effects model, employing Šidák’s correction for multiple comparisons. Total release at each concentration and the behavioral experiments with the corresponding antagonists were statistically analyzed using one-way ANOVA, followed by Tukey’s post-hoc test. Molecular volume (van der Waals) was calculated using a grid approximation (spacing 0.75 Å). logP was calculated using Molinspiration Cheminformatics software. For in vivo studies, one-way ANOVA with Dunnet’s post-hoc test was used to compare all conditions to saline in dose-response experiments when data were normally distributed. Otherwise, a non-parametric test (Kruskall-Wallis with Dunn’s post-hoc test) was used. Alpha was set at 0.05. Outliers were excluded following ROUT’s method (Q = 0.1%). All statistical analyses and Pearson correlations were conducted using GraphPad Prism 10 software (GraphPad software, San Diego, CA, USA).

[4] = system: horizontal locomotor activity in mice; assay: Horizontal locomotor activity (HLA); type: in vivo; settings: i.p., 30 min; for HLA (hypolocomotion) Emax (95% CI): total traveled distance
Method: The HLA test was carried out according to a previous study. The same animals (N = 8–10 per group) used for the assessment of HTR were recorded for 30 min in an observation arena, under low-light conditions with white noise. Video recordings were processed using a tracking software (Smart 3.0 Panlab, Barcelona, Spain) to measure the total traveled distance.
as §3

[5] = 3 nM [3H]imipramine, N ≥ 3, read-out: SERT Ki ± SD
[6] = read-out: 5-HT uptake inhibition IC50 ± SD, HEK293 hSERT, N ≥ 3

T1 sequence (P31645 whole entry): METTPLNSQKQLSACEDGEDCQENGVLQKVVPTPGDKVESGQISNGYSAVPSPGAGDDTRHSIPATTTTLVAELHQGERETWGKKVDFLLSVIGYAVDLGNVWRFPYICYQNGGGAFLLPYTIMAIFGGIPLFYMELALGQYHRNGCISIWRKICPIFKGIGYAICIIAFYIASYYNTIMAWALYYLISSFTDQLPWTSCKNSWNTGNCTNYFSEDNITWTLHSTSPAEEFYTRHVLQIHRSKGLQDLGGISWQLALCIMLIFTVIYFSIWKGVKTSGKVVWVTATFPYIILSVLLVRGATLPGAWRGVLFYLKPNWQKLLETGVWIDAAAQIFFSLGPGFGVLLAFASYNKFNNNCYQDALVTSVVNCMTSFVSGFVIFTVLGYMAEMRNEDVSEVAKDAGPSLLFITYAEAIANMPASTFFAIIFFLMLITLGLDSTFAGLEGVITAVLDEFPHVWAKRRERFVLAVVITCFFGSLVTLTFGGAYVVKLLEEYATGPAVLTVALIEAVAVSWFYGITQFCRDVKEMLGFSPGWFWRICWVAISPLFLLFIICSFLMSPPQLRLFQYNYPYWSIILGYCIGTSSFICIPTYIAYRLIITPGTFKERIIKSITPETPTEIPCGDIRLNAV

SMILES	Ki (SERT [1]; [5]) [nM]	Ki (h5-HT2AR) [nM]	IC50 (SERT [2]; [6]) [nM]	HTR Emax (95% CI) [3]	HTR ED50 ([3]; 10 min after injection) [mg/kg]	HLA (hypolocomotion) ED50 [4] [mg/kg]	HLA (hypolocomotion) Emax (95% CI) [4]	Ki (SERT [1]) [nM]	IC50 (SERT [2]) [nM]	ED50 ([3]; Mus musculus, ip, 10 min, 10 min after injection) [mg/kg]	ED50 ([4]; Mus musculus, ip, 0.5 h, read-out: HLA (hypolocomotion) ED50) [mg/kg]
CCN(CCc1c[nH]c2ccc(OC)cc12)C(C)C [5-MeO-EIPT]	1780 ± 83	151 ± 26	22200	9.27 (7.10–11.44) HTR events	10.6	4.82	68.02 (54.57–81.46) % reduction				
COc1ccc2[nH]cc(CCN(C)C(C)C)c2c1 [5-MeO-MIPT]	2870 ± 928	147 ± 32	29800	14.19 (11.7–16.68) HTR events	0.791	6.57	82.78 (62.16–103.4) % reduction				
CCN(C)CCc1c[nH]c2ccc(OC)cc12 [5-MeO-MET]	7710 ± 3380	94.1 ± 16.7	30100	28.4 (23.5–33.2) HTR events	2.72	1.70	66.79 (58.20–75.37) % reduction				
COc1ccc2[nH]cc(CCN(C(C)C)C(C)C)c2c1 [5-MeO-DIPT, 5-methoxy-N,N-diisopropyltryptamine]				10.5 (8.5–12.5) HTR events			55.32 (38.20–72.44) % reduction	1620 ± 475	24200	0.477	4.52
CCN(CC)CCc1c[nH]c2ccc(OC)cc12 [5-MeO-DET]	10400	128 ± 4	60000	9.73 (7.61–11.85) HTR events	2.32	4.78	63.56 (37.58–89.53) % reduction				
C=CCN(CC=C)CCc1c[nH]c2ccc(OC)cc12 [5-MeO-DALT]	1190 ± 96	71.7 ± 14.8	22300	10.4 (8.5–12.4) HTR events	4.16	6.22	73.11 (57.45–88.78) % reduction				
COc1ccc2[nH]cc(CCN3CCCC3)c2c1 [5-MeO-pyr-T]	3010 ± 354	373 ± 59	2760 ± 1430	10.0 (6.9–13.1) HTR events	7.29	1.60	71.25 (60.71–81.79) % reduction				
